Columns and labels:
Swiss-type male mice = assay: RotaRod performance test, motor coordination; conditions: for animal residence time on the rotational cylinder compared to controls: 15 minutes after administration; for Mice residence time on the rotational cylinder: 9 rpm, cut off 180 s, mean ± SEM
Description: The assessment of motor coordination in mice, by the rotarod performance test, was carried out to detect any possible sedative or muscle relaxant effect caused by the compounds of the present invention, previously tested in acute and neuropathic pain models. This test was carried out according to the method of described by Dunham & Miya and animal motor coordination was evaluated using RotaRod apparatus [Dunham M. S. & Miya. R. T. (1957). J. Amer. Pharmac. Assoc. Sci. Edit. 1957, 46, 208-209].
The RotaRod apparatus (Model 412 EFF, Insight Equipements, Brazil) is a device that measures motor coordination and thus evaluates balance alterations in mice. The apparatus consists of an acrylic box splited into four compartments with a rotational cylinder among them. The cylinder rotates at constant speed driven by a motor and regulated to the constant speed mode of 5-37 revolutions per minute (rpm). In this study the speed was set up to 9 rpm.
To remain on the rotational cylinder, the animal needs to move around, so that the motor coordination can be quantified. The four compartments have drop detection system, through the impact, a microprocessor circuit, for timing the permanence of the animal at the compartment, and for counting the number of falls.
The day before the test, Swiss-type male mice (19-25 g) were placed on the rotational cylinder, set up to the constant speed mode of 9 rpm for adaptation and learning. A group of 10 mice were used for each tested compound, and the total period spent on the rotational cylinder (in seconds) was recorded for a period of 180 seconds (cut off time) and it was accept a maximum of three falls for each animal. Motor coordination was assessed at times 0 (before treatment), 15, 30, 60 and 120 minutes after compounds administration at a dose of 32.25 μmol/kg.
All compounds were administered intraperitoneally (ip).
The Student's t-test was also used to compare means between two experimental groups. Differences were considered significant when p<0.05.

Swiss mice [1] = assay: Hot plate model, assay for acute pain; assay type: in vivo; conditions: ip, 32.25 μmol/kg, plate 52° C., compared to morphine sulfate at the same dose
Text: The antinociceptive activity (AA) of the present invention selected compounds (C3, C9, C11, C12, C13, C15 and C17) was investigated in hot plate model [Hot Plate Model LE7406, Scientific Inc.] described by Kuraishi et al. [Kuraishi, Y., Harada, Y., Aratani, S., Satoh, M., Takagi, H. Brain Research 1983.273, 245-2523]. This method is valid to evaluate the analgesic activity of substances acting on the central nervous system. Swiss mice weighing 20-25 g were placed on a metal plate heated up to 52° C. The animals were withdrawn from the hot plate at the time they lead their forepaws toward the mouth to lick, being this an indicative of pain second Le Bars et al. [Le Bars, D., Gozariu, M., Cadden, S. W. Animal models of nociception. Pharmacol. Rev. 2001, 53 (4), 597-652]. In this way, it was analyzed how long the animal, treated or not (control) with the analgesic substance, remained on the plate at 52° C.; the longest residence time of an animal on the plate was 35 seconds. This time limit (or cut off) (35 s) was determined by the average of three measurements of latency control values, obtained for each animal multiplied by three, to prevent any kind of tissue injury on the footpad of animals's paw due to long permanence on the heated surface. The protocol consisted in the intraperitoneal (ip) injection of the selected compounds of the present invention at a dose of 32.25 μmol/kg. The antinociceptive activity was evaluated at intervals of 10 minutes until effect completely disappear and, compared to morphine sulfate ([…]) at the same dose of 32.25 μmoles/kg (12.2 mg/kg). The investigated parameter is the latency of reflex to paw withdrawal in response to thermal stimulus. The results were expressed as percentage of AA, which was calculated according to Equation 1 for each experiment.

[2] = tested on: rats subjected to sciatic nerve CCI; assay: Chronic constrictive injury (CCI) of the sciatic nerve, thermal hyperalgesia, paw withdrawal test; assay type: in vivo, rat; conditions: for increase in latency of paw withdrawal: since the 3rd day of treatment
Description: The chronic constrictive injury (CCI) was induced by sciatic nerve ligation according to the method described by Bennett and Xie [Bennett. G. J.; Xie, Y. K. Pain […], 33: 87-107]. Male Wistar rats, weighing 180-240 g, were anesthetized with a mixture of ketamine and xylazine (60 mg/kg and 5 mg/kg, respectively), intraperitoneally. Through an incision of 0.5 cm (parallel and spaced about 10 mm from the left femur) the sciatic nerve was identified. With a thin glass rod, a small segment of sciatic nerve was exposed and four loosely ligatures were placed around the sciatic nerve spaced 1 mm each other using a 3-0 silk suture thread. After the procedure, the skin was sutured and a topical antiseptic was applied.
To assess animal behavior in response to hyperalgesic phenomenon resulting from sciatic nerve chronic constrictive injury, the model described by Hargreaves and Dubner was used [Hargreaves K., Dubner R., Brown F., Flores C., Joris J. Pain 1988, 32 (1): 77-88]. In this regard, paw withdrawal in response to a painful phenomenon was performed. This is a nociceptive test which involves a peripheral short thermal stimulus induced by the radiant heat of an incandescent lamp bulb. […] Radiant heat has an advantage over the other modes of thermal stimulation in that it produces no tactile stimulus. [Le Bars D., Gozariu M., Cadden S. W. Pharmacology Reviews, 2001, 53 (4), 597-652]. In this assay, a plantar test analgesimeter (ITC Life Science Inc, USA) was used.
Animals were placed in transparent acrylic boxes with tempered glass pane floor for 40 minutes to acclimate. After this period, the radiant heat was applied to the footpads of animals's hindpaws until they make the movement of paw withdrawal. The paw withdrawal latency was defined as the time recorded from the beginning of the radiant heat stimulus and the paw withdrawal. For each paw, three latency records were made, and the average value was used to define the paw withdrawal time control The maximum time that each animal was exposed to the radiant heat source (cut-off) was defined as three times the paw withdrawal time control, to avoid tissue injuries in animals's paws.
The day before surgery, rats, defined as “control before surgery”, were placed in acrylic boxes to the paw withdrawal test. On the 7th day after the surgery (CCI), the paw withdrawal test was again performed in order to verify neuropathic pain has been effectively developed in the left paw—defined as “post-surgery control.”
The paw withdrawal test was assessed during the days 1, 3, and 7 of the treatment (with amitriptyline hydrochloride or the compounds of examples of the instant invention) and on days 1, 3, and 7 after treatment interruption.
Differences were considered significant when p<0.05.

Swiss mice [3] = assay: Hot plate model, assay for acute pain; assay type: in vivo; conditions: ip, 32.25 μmol/kg
[4] = T 15 min after ip administration, 32.25 μmol/kg
[5] = T 30 min after ip administration, 32.25 μmol/kg (diazepam 2 mg/kg)
[6] = T 60 min after ip administration, 32.25 μmol/kg (diazepam 2 mg/kg)
[7] = T 120 min after ip administration, 32.25 μmol/kg (diazepam 2 mg/kg)
[8] = first day of treatment, 32.25 μmol/kg ip
[9] = 32.25 μmol/kg ip, p<0.05 or p<0.005

SMILES	animal residence time on the rotational cylinder compared to controls (Swiss-type male mice; 32.25 μmol/kg)	Mice residence time on the rotational cylinder (Swiss-type male mice; [4]) [s]	Mice residence time on the rotational cylinder (Swiss-type male mice; [5]) [s]	Mice residence time on the rotational cylinder (Swiss-type male mice; [6]) [s]	Mice residence time on the rotational cylinder (Swiss-type male mice; [7]) [s]	antinociceptive activity (AA), hot plate (Swiss mice [1])	antinociceptive effect, paw withdrawal latency vs post-surgery control [2, 8]	increase in latency of paw withdrawal [2, 9]	side effects compared to morphine (Swiss mice [3])	onset of significant increase in latency ([2]; 5 mg/kg ip)	reversal of signs of thermal hyperalgesia ([2]; 5 mg/kg ip during 7 days)	onset of significant increase in latency ([2]; 10 mg/kg ip)	reversal of signs of thermal hyperalgesia ([2]; 10 mg/kg ip during 7 days)	latency increase, statistical significance ([2]; first day of treatment, 32.25 μmol/kg ip, p<0.05 or p<0.005)
Cl.OC1(c2ccc(Cl)cc2)CCN(CCc2conc2-c2ccc(F)cc2)CC1 [C15, 4-(4-chlorophenyl)-1-{2-[3-(4-fluorophenyl)-1,2-oxazol-4-yl]ethyl}piperidin-4-ol hydrochloride]	equal to the time observed for the negative control, and significantly higher than the time observed for the control amitriptyline hydrochloride	180.0	179.0	179.2	180.0	exhibit antinociceptive activity of intensity and kinetics similar to morphine sulfate	antinociceptive effects in the first day of treatment	statistically significant increase in latency of paw withdrawal	no side effects of conventional morphine	–	–	–	–	–
Cl.Cl.Fc1ccc(-c2n[nH]cc2CCN2CCOCC2)cc1.O [C9, 4-{2-[3-(4-fluorophenyl)-1H-pyrazol-4-yl]ethyl}morpholine dihydrochloride monohydrate]	equal to the time observed for the negative control, and significantly higher than the time observed for the control amitriptyline hydrochloride	180.0	180.0	180.0	175.3	exhibit antinociceptive activity of intensity and kinetics similar to morphine sulfate	–	statistically significant increase in latency of paw withdrawal	no side effects of conventional morphine	–	–	–	–	–
CN1CCN(CCc2c[nH]nc2-c2ccc(F)cc2)CC1.Cl.Cl.Cl.O.O [C11, 1-{2-[3-(4-fluorophenyl)-1H-pyrazol-4-yl]ethyl}-4-methylpiperazine trihydrochloride dihydrate]	equal to the time observed for the negative control, and significantly higher than the time observed for the control amitriptyline hydrochloride	180.0	177.0	178.5	176.7	exhibit antinociceptive activity of intensity and kinetics similar to morphine sulfate	antinociceptive effects in the first day of treatment	statistically significant increase in latency of paw withdrawal	no side effects of conventional morphine	–	–	–	–	–
Cl.Cl.Fc1ccc(-c2n[nH]cc2CCN2CCCCC2)cc1.O [C3, 1-{2-[3-(4-fluorophenyl)-1H-pyrazol-4-yl]ethyl}piperidine dihydrochloride monohydrate]	equal to the time observed for the negative control, and significantly higher than the time observed for the control amitriptyline hydrochloride	180.0	178.2	178.7	180.0	exhibit antinociceptive activity of intensity and kinetics similar to morphine sulfate	antinociceptive effects in the first day of treatment	statistically significant increase in latency of paw withdrawal	no side effects of conventional morphine	significant increase in latency starting on day 3 of treatment	effective in reversing the signs of thermal hyperalgesia	significant increase in latency starting on day 3 of treatment	effective in reversing the signs of thermal hyperalgesia	–
CCOC(=O)C1(c2ccccc2)CCN(CCc2conc2-c2ccc(F)cc2)CC1.Cl [C17, Ethyl 1-{2-[3-(4-fluorophenyl)-1,2-oxazol-4-yl]ethyl}-4-phenylpiperidine-4-carboxylate hydrochloride]	–	127.4	153.3	163.2	175.6	exhibit antinociceptive activity of intensity and kinetics similar to morphine sulfate	antinociceptive effects in the first day of treatment	–	no side effects of conventional morphine	–	–	–	–	the latency increase was statistically significant

From patent US20150266864A1, “HETEROAROMATIC COMPOUNDS, METHOD FOR PREPARING THE COMPOUNDS, PHARMACEUTICAL COMPOSITIONS, USES AND METHOD FOR TREATING ACUTE AND CHRONIC PAIN” (CRISTÁLIA PRODUTOS QUÍMICOS FARMACÊUTICOS LTDA, priority 2012, published 2015)
